The conditions of the data set: pH 5.

Ends that are not written are not given here.

GLFGAIAGFIEAAWTGMIDGWYGS [G12AG13A]: the “Kp (lipid/water partition coefficient)” value is reported as 442.

On to “GLFGAIAGFIEGGWTGMIDGWYGS [WT, reference compound]”, for which the “Kp (lipid/water partition coefficient)” value is reported as 10455.

As for “GLFAAIAAFIEGGWTAMIDAWYGS [G4AG8AG16AG20A]”, the “Kp (lipid/water partition coefficient)” value worked out at 333.

Turning to GLFGAIAGFIEGGATGMIDGWYGS [W14A], the “Kp (lipid/water partition coefficient)” value amounted to 6265.
